Assay results taken from patent US10501516B2, “Peptide compound” (TAKEDA PHARMACEUTICAL COMPANY LIMITED, priority 2016, dated 2019).
Square brackets hold non-standard residues; d marks the D form. Side chains are listed from the residue outwards. Peptide text beside a SMILES is read from it. * marks the point of attachment. C18 diacid = O=C(O)CCCCCCCCCCCCCCCCC(=O)*; NMeY = CN[C@@H](Cc1ccc(O)cc1)C(=O)O; Palmitoyl = CCCCCCCCCCCCCCCC(=O)*; αMeF = C[C@](N)(Cc1ccccc1)C(=O)O; Iva = CC[C@](C)(N)C(=O)O; Aib = CC(C)(N)C(=O)O

tested on: male C57BL/6J mouse; experiment: Evaluation of feeding suppressive action in mice; type: in vivo; conditions: 30 nmol/kg s.c. once a day for 3 days; 3-days cumulative food consumption vs solvent control
Description: The feeding suppressive activity of a test compound was examined by the method described below.
The test compound was dissolved at a concentration of 30 or 100 nmol/2 mL in a solvent (10% DMSO-containing physiological saline). The test compound solution was subcutaneously administered at a dose of 2 mL/kg to the back of each male C57BL/6J mouse at 8-9 weeks of age (20-26° C., allowed to take food and water ad libitum; raised in the 12-hour bright-12-hour dark cycle). The administration was performed once a day for 3 days. After the administration, the mouse was individually raised in a rearing cage, and given previously weighed food; food consumption for 3 days after the start of administration was measured. The food consumption was calculated by subtracting the amount of remaining food from the weight of the food given on the day of the start of administration. When the food consumption of a control group receiving administration of the solvent alone was regarded as a suppression rate of 0%, the feeding suppressive activity of each test compound was evaluated on the basis of 3-days cumulative food consumption after the start of administration. The food intake suppression rate (%) of the test compound was defined as (Food consumption of the control group−Food consumption of the test compound-administered group)/Food consumption of the control group×100.

Which “Rate of feeding suppression (%)” value does the source give for `CCCCCCCCCCCCCCCC(=O)NCC(=O)NCC(=O)NCC(=O)NCC(=O)NCCCC[C@H](NC(=O)[C@H](CC(=O)O)NC(=O)[C@H](CO)NC(=O)[C@@H](NC(=O)[C@](C)(Cc1ccccc1)NC(=O)[C@@H](NC(=O)CNC(=O)[C@H](CCC(=O)O)NC(=O)C(C)(C)NC(=O)[C@@H](N)Cc1ccc(O)cc1)[C@@H](C)O)[C@@H](C)O)C(=O)NC(C)(C)C(=O)N[C@H](C(=O)NC(C)(C)C(=O)N[C@@H](CC(C)C)C(=O)N[C@@H](CCC(=O)O)C(=O)N[C@@H](CCCCN)C(=O)N[C@@H](CCC(N)=O)C(=O)N[C@@H](CCCNC(=N)N)C(=O)N[C@@H](CCC(N)=O)C(=O)N[C@@](C)(CC)C(=O)N[C@@H](CCC(=O)O)C(=O)N[C@@H](Cc1ccccc1)C(=O)N[C@H](C(=O)N[C@@H](CCCNC(=N)N)C(=O)N[C@@H](Cc1c[nH]cn1)C(=O)N[C@@H](CC(C)C)C(=O)N[C@@H](CC(C)C)C(=O)N[C@@H](CC(N)=O)C(=O)N[C@@H](CCCCN)C(=O)NC(C)(C)C(=O)N[C@H](C(=O)N[C@@H](CCCNC(=N)N)C(=O)N[C@@H](CCC(N)=O)C(=O)N[C@@H](CCCNC(=N)N)C(=O)N[C@@H](Cc1ccc(O)cc1)C(N)=O)[C@@H](C)O)C(C)C)[C@@H](C)CC` [Example 31] (H-Y[Aib]EGT[αMeF]TSDK([Gly-Gly-Gly-Gly-Palmitoyl])[Aib]I[Aib]LEKQRQ[Iva]EFVRHLLNK[Aib]TRQRY-NH2) here?
Its value is −56.8%.

With `CC[C@H](C)[C@H](NC(=O)C(C)(C)NC(=O)[C@H](CCCCNC(=O)CNC(=O)CNC(=O)CNC(=O)CNC(=O)CCCCCCCCCCCCCCCCC(=O)O)NC(=O)[C@H](CC(=O)O)NC(=O)[C@H](CO)NC(=O)[C@@H](NC(=O)[C@](C)(Cc1ccccc1)NC(=O)[C@@H](NC(=O)CNC(=O)[C@H](CCC(=O)O)NC(=O)C(C)(C)NC(=O)[C@@H](N)Cc1ccc(O)cc1)[C@@H](C)O)[C@@H](C)O)C(=O)NC(C)(C)C(=O)N[C@@H](CC(C)C)C(=O)N[C@@H](CCC(=O)O)C(=O)N[C@@H](CCCCN)C(=O)N[C@@H](CCC(N)=O)C(=O)N[C@@H](CCCNC(=N)N)C(=O)N[C@@H](CCC(N)=O)C(=O)N[C@@](C)(CC)C(=O)N[C@@H](CCC(=O)O)C(=O)N[C@@H](Cc1ccccc1)C(=O)N[C@H](C(=O)N[C@@H](CCCNC(=N)N)C(=O)N[C@@H](Cc1c[nH]cn1)C(=O)N[C@@H](CC(C)C)C(=O)N[C@@H](CC(C)C)C(=O)N[C@@H](CC(N)=O)C(=O)N[C@@H](CCCCN)C(=O)NC(C)(C)C(=O)N[C@H](C(=O)N[C@@H](CCCNC(=N)N)C(=O)N[C@@H](CCC(N)=O)C(=O)N[C@@H](CCCNC(=N)N)C(=O)N[C@@H](Cc1ccc(O)cc1)C(N)=O)[C@@H](C)O)C(C)C` [Example 32] (H-Y[Aib]EGT[αMeF]TSDK([Gly-Gly-Gly-Gly-C18 diacid])[Aib]I[Aib]LEKQRQ[Iva]EFVRHLLNK[Aib]TRQRY-NH2) as the molecule, how does the “Rate of feeding suppression (%)” value read?
The value was −51.0%.

`CCCCCCCCCCCCCCCC(=O)NCC(=O)NCC(=O)NCC(=O)NCC(=O)NCCCC[C@H](NC(=O)[C@H](CC(=O)O)NC(=O)[C@H](CO)NC(=O)[C@@H](NC(=O)[C@](C)(Cc1ccccc1)NC(=O)[C@@H](NC(=O)CNC(=O)[C@H](CCC(=O)O)NC(=O)C(C)(C)NC(=O)[C@@H](N)Cc1ccc(O)cc1)[C@@H](C)O)[C@@H](C)O)C(=O)N[C@@H](C)C(=O)N[C@H](C(=O)NC(C)(C)C(=O)N[C@@H](CC(C)C)C(=O)N[C@@H](CCC(=O)O)C(=O)N[C@@H](CCCCN)C(=O)N[C@@H](CCC(N)=O)C(=O)N[C@@H](CCCNC(=N)N)C(=O)N[C@@H](CCC(N)=O)C(=O)N[C@@](C)(CC)C(=O)N[C@@H](CCC(=O)O)C(=O)N[C@@H](Cc1ccccc1)C(=O)N[C@H](C(=O)N[C@@H](CCCNC(=N)N)C(=O)N[C@@H](Cc1c[nH]cn1)C(=O)N[C@@H](CC(C)C)C(=O)N[C@@H](CC(C)C)C(=O)N[C@@H](CC(N)=O)C(=O)N[C@@H](CCCCN)C(=O)NC(C)(C)C(=O)N[C@H](C(=O)N[C@@H](CCCNC(=N)N)C(=O)N[C@@H](CCC(N)=O)C(=O)N[C@@H](CCCNC(=N)N)C(=O)N[C@@H](Cc1ccc(O)cc1)C(N)=O)[C@@H](C)O)C(C)C)[C@@H](C)CC` [Example 35] (H-Y[Aib]EGT[αMeF]TSDK([Gly-Gly-Gly-Gly-Palmitoyl])AI[Aib]LEKQRQ[Iva]EFVRHLLNK[Aib]TRQRY-NH2) was tested. Which “Rate of feeding suppression (%)” value did it give?
The value was −52.6%.

Which “Rate of feeding suppression (%)” value does the source give for `CCCCCCCCCCCCCCCC(=O)NCC(=O)NCC(=O)NCC(=O)NCC(=O)NCCCC[C@H](NC(=O)[C@H](CC(=O)O)NC(=O)[C@H](CO)NC(=O)[C@@H](NC(=O)[C@](C)(Cc1ccccc1)NC(=O)[C@@H](NC(=O)CNC(=O)[C@H](CCC(=O)O)NC(=O)C(C)(C)NC(=O)[C@H](Cc1ccc(O)cc1)NC)[C@@H](C)O)[C@@H](C)O)C(=O)N[C@@H](C)C(=O)N[C@H](C(=O)NC(C)(C)C(=O)N[C@@H](CC(C)C)C(=O)N[C@@H](CCC(=O)O)C(=O)N[C@@H](CCCCN)C(=O)N[C@@H](CCC(N)=O)C(=O)N[C@@H](CCCNC(=N)N)C(=O)N[C@@H](CCC(N)=O)C(=O)N[C@@](C)(CC)C(=O)N[C@@H](CCC(=O)O)C(=O)N[C@@H](Cc1ccccc1)C(=O)N[C@H](C(=O)N[C@@H](CCCNC(=N)N)C(=O)N[C@@H](Cc1c[nH]cn1)C(=O)N[C@@H](CC(C)C)C(=O)N[C@@H](CC(C)C)C(=O)N[C@@H](CC(N)=O)C(=O)N[C@@H](CCCCN)C(=O)NC(C)(C)C(=O)N[C@H](C(=O)N[C@@H](CCCNC(=N)N)C(=O)N[C@@H](CCC(N)=O)C(=O)N[C@@H](CCCNC(=N)N)C(=O)N[C@@H](Cc1ccc(O)cc1)C(N)=O)[C@@H](C)O)C(C)C)[C@@H](C)CC` [Example 37] (H-[NMeY][Aib]EGT[αMeF]TSDK([Gly-Gly-Gly-Gly-Palmitoyl])AI[Aib]LEKQRQ[Iva]EFVRHLLNK[Aib]TRQRY-NH2) here?
The value was −54.9%.
